Literature values as cited in US8716354B2 (priority 2003, dated 2014).

Details: intravenous injection of a therapeutic dose

CC(C)c1cccc(C(C)C)c1O [propofol, 2,6-diisopropylphenol]
Time to hypnosis from the start of injection: ≤ 40 s
